Columns and labels:
Assay type in all cases: in vivo
Echinochloa crus-galli [1] = assay: Test Example 1: herbicidal effect test by treatment of rice paddy soil (immediately after seeding)
In short: (§1)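 Values are herbicidal rates (%) derived from average plant dry weight in treated versus untreated pots 14 days after treatment, run in duplicate. Treatment was a water-diluted emulsion dropped into flooded paddy soil right after sowing, at 120 g active ingredient per 10 ares.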

Scirpus juncoides [2] = assay: as above
In short: as §1

[3] = system: broad leaf weeds (Lindernia pyxidaria and Monochoria vaginalis); assay: as above
In short: as §1

Echinochloa crus-galli [4] = assay: Test Example 2: herbicidal effect test by treatment during growing period in paddy rice cultivation (seven days after seeding); settings: 120 g/10a active ingredient, assessed 14 days after treatment, dry weight vs untreated area
In short: (§2)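 Emulsion formulations, diluted in water, applied dropwise to flooded pots (about 3 cm water) 7 days post-seeding at 120 g a.i./10 ares. Weeds sown 30 seeds each, 0–1 cm deep in puddled paddy soil; greenhouse. Readout: % reduction in plant dry weight vs untreated, day 14, duplicates.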

Scirpus juncoides [5] = assay: as above; settings: 120 g/10a active ingredient, assessed 14 days after treatment, dry weight vs untreated area
In short: as §2

[6] = system: broad leaf weeds (Lindernia pyxidaria and Monochoria vaginalis); assay: as above; settings: 120 g/10a active ingredient, assessed 14 days after treatment, dry weight vs untreated area
In short: as §2

Amaranthus viridis [7] = assay: Test Example 3: herbicidal effect test by treatment of dry field farming soil (one day after seeding); settings: 120 g/10a active ingredient, evaluated 14 days after treatment
In short: (§3)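 Herbicidal rate (%) = {1 − treated/untreated mean plant dry weight} × 100, scored 14 days after spraying, duplicate pots per concentration. Emulsified compound was water-diluted and applied to soil surface one day post-seeding at 120 g a.i. per 10 ares.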

Chenopodium album [8] = assay: as above; settings: 120 g/10a active ingredient, evaluated 14 days after treatment
In short: as §3

Echinochloa crus-galli [9] = assay: as above; settings: 120 g/10a active ingredient, evaluated 14 days after treatment
In short: as §3

southern crabgrass [10] = assay: as above; settings: 120 g/10a active ingredient, evaluated 14 days after treatment
In short: as §3

Amaranthus viridis [11] = assay: Test Example 4: herbicidal effect test by treatment of leave and stem in dry field farming (seven days after seeding); settings: 120 g/10a active ingredient; emulsion sprayed seven days after seeding; evaluated 14 days after treatment
In short: (§4)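 Twenty seeds per species were mixed into the top 1 cm of alluvial soil in 36 cm^2 pots; emulsions were sprayed seven days after seeding at 100 L per 10 ares (120 g active ingredient per 10 ares). Herbicidal rate (%) = {1 − treated/untreated mean dry weight} × 100, 14 days after treatment, duplicate.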

Chenopodium album [12] = assay: as above; settings: 120 g/10a active ingredient; emulsion sprayed seven days after seeding; evaluated 14 days after treatment
In short: as §4

Echinochloa crus-galli [13] = assay: as above; settings: 120 g/10a active ingredient; emulsion sprayed seven days after seeding; evaluated 14 days after treatment
In short: as §4

southern crabgrass [14] = assay: as above; settings: 120 g/10a active ingredient; emulsion sprayed seven days after seeding; evaluated 14 days after treatment
In short: as §4

[15] = 120 g/10a active ingredient, 14 days after treatment, dry weight vs untreated area
[16] = 120 g/10a active ingredient, dry weight vs untreated area, 14 days after treatment
[17] = Lindernia pyxidaria, 120 g/10a active ingredient, dry weight vs untreated area, 14 days after treatment
[18] = Monochoria vaginalis, 120 g/10a active ingredient, dry weight vs untreated area, 14 days after treatment

Row | SMILES | Herbicidal rate (%) Echinochloa crus-galli (Echinochloa crus-galli [1]; [15]) [%] | Herbicidal rate (%) Scirpus juncoides (Scirpus juncoides [2]; [15]) [%] | Herbicidal rate (%) Lindernia pyxidaria ([3]; Lindernia pyxidaria, 120 g/10a active ingredient, 14 days after treatment, dry weight vs untreated area) [%] | Herbicidal rate (%) Monochoria vaginalis ([3]; Monochoria vaginalis, 120 g/10a active ingredient, 14 days after treatment, dry weight vs untreated area) [%] | Herbicidal rate (%) Echinochloa crus-galli (Echinochloa crus-galli [4]) [%] | Herbicidal rate (%) Scirpus juncoides (Scirpus juncoides [5]) [%] | Herbicidal rate (%) Lindernia pyxidaria [6] [%] | Herbicidal rate (%) Monochoria vaginalis [6] [%] | herbicidal rate, Amaranthus viridis (Amaranthus viridis [7]) [%] | herbicidal rate, Chenopodium album (Chenopodium album [8]) [%] | herbicidal rate, Echinochloa crus-galli (Echinochloa crus-galli [9]) [%] | herbicidal rate, southern crabgrass (southern crabgrass [10]) [%] | herbicidal effect (herbicidal rate), Amaranthus viridis (Amaranthus viridis [11]) [%] | herbicidal effect (herbicidal rate), Chenopodium album (Chenopodium album [12]) [%] | herbicidal effect (herbicidal rate), Echinochloa crus-galli (Echinochloa crus-galli [13]) [%] | herbicidal effect (herbicidal rate), southern crabgrass (southern crabgrass [14]) [%] | Herbicidal rate (%) Echinochloa crus-galli (Echinochloa crus-galli [1]; [16]) [%] | Herbicidal rate (%) Scirpus juncoides (Scirpus juncoides [2]; [16]) [%] | Herbicidal rate (%) Lindernia pyxidaria [3, 17] [%] | Herbicidal rate (%) Monochoria vaginalis [3, 18] [%]
1 | Cc1c(Cc2ccccc2N(S(=O)(=O)C(F)(F)F)S(=O)(=O)C(F)(F)F)c(=O)on1C1CCCc2ccccc21 (stereo not shown) [Compound 1-1050] | 100 | 90 | 100 | 100 | 90 | 90 | 100 | 90 | 90 | 90 | 100 | 90 | 40 | 50 | 50 | 40 |  |  |  | 
2 | CCC(CC)n1oc(=O)c(Cc2ccccc2N(C(=O)C(C)C)S(=O)(=O)C(F)(F)F)c1C [Compound 1-331] |  |  |  |  | 90 | 90 | 90 | 90 | 90 | 90 | 90 | 90 | 40 | 40 | 90 | 90 | 90 | 90 | 90 | 90
3 | CCc1c(Cc2ccccc2NS(=O)(=O)C(F)(F)F)c(=O)on1C(C)C [Compound 1-63] |  |  |  |  | 80 | 90 | 80 | 90 | 40 | 40 | 90 | 90 | 40 | 60 | 90 | 60 | 90 | 100 | 100 | 100
4 | CCCC(CC)n1oc(=O)c(Cc2ccccc2N(S(=O)(=O)C(F)(F)F)S(=O)(=O)C(F)(F)F)c1C (stereo not shown) [Compound 1-971] |  |  |  |  | 100 | 90 | 80 | 90 | 80 | 60 | 90 | 80 | 40 | 50 | 90 | 90 | 100 | 100 | 100 | 100
5 | CCC(CC)n1oc(=O)c(Cc2ccccc2N(C(=O)C2CC2)S(=O)(=O)C(F)(F)F)c1C [Compound 1-405] |  |  |  |  | 90 | 90 | 90 | 90 | 90 | 90 | 90 | 90 | 40 | 40 | 90 | 90 | 90 | 90 | 90 | 90
6 | CCCC(C)n1oc(=O)c(Cc2ccccc2N(C(C)=O)S(=O)(=O)C(F)(F)F)c1C (stereo not shown) [Compound 1-299] |  |  |  |  | 100 | 90 | 60 | 70 | 70 | 40 | 90 | 80 | 40 | 90 | 90 | 80 | 100 | 90 | 100 | 80
7 | Cc1c(Cc2ccccc2N(S(C)(=O)=O)S(=O)(=O)C(F)(F)F)c(=O)on1C(C)c1ccccc1 (stereo not shown) [Compound 1-907] |  |  |  |  | 90 | 90 | 90 | 90 | 90 | 90 | 90 | 90 | 40 | 40 | 90 | 90 | 90 | 90 | 90 | 90
